Source: publication PMC12069442 (Frontiers in Pharmacology, 2025)
Entries after “also recorded” stand apart in the source; their conditions may differ. Where a name gives a salt, the structure may show the parent alone.

Test system: rat liver microsomes (RLM)
Experiment: Kinetics inhibitory assay of quercetin on ziprasidone metabolism in RLM
Format: in vitro ADME
Settings: RLM

Row | Compound | α
1 | O=c1c(O)c(-c2ccc(O)c(O)c2)oc2cc(O)cc(O)c12 [quercetin, Quercetin] | 0.96

Same assay, conditions: RLM 0.3 mg/mL, ziprasidone 10 μM, quercetin 0–100 μM, n=3

Row | Compound | IC50
2 | O=c1c(O)c(-c2ccc(O)c(O)c2)oc2cc(O)cc(O)c12 [quercetin, Quercetin] | 13.8 ± 0.3 µM

Same assay, conditions: RLM, Lineweaver-Burk secondary plot

Row | Compound | Ki | αKi
3 | O=c1c(O)c(-c2ccc(O)c(O)c2)oc2cc(O)cc(O)c12 [quercetin, Quercetin] | 30.7 µM | 29.4 µM

Same assay, conditions: RLM, ziprasidone 2.5–20 μM, quercetin 0, 6.5, 13, 26 μM

Row | Compound | Inhibition type
4 | O=c1c(O)c(-c2ccc(O)c(O)c2)oc2cc(O)cc(O)c12 [quercetin, Quercetin] | mixed inhibitory mechanism; also recorded: mixed inhibition

Molecular target: CYP3A4.1 (Homo sapiens, UniProt P08684)
Experiment: not given
Settings: not given

Chain of CYP3A4.1 (P08684 whole entry): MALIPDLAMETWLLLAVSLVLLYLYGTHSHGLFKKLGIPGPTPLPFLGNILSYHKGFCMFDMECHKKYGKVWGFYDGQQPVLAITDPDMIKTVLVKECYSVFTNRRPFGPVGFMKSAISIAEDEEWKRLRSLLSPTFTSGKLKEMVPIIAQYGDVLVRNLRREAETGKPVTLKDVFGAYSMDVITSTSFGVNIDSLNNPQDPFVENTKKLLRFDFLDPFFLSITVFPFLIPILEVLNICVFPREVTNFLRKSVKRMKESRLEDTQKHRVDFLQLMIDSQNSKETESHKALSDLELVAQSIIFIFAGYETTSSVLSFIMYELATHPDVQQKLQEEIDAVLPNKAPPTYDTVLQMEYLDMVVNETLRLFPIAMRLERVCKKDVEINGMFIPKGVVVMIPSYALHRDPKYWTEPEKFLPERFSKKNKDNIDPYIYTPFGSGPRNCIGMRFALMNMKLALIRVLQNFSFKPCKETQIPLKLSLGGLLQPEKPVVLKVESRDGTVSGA

Row | Compound | α | αKi
5 | O=c1c(O)c(-c2ccc(O)c(O)c2)oc2cc(O)cc(O)c12 [quercetin, Quercetin] | 0.66 | 10.06 µM

Test system: human liver microsomes (HLM) (Homo sapiens)
Experiment: Kinetics inhibitory assay of quercetin on ziprasidone metabolism in HLM
Format: in vitro ADME
Settings: ziprasidone 2.5–20 μM, quercetin 0, 6.25, 12.5, 25 μM

Chain of human liver microsomes (HLM) (Homo sapiens) (P08684 2-503): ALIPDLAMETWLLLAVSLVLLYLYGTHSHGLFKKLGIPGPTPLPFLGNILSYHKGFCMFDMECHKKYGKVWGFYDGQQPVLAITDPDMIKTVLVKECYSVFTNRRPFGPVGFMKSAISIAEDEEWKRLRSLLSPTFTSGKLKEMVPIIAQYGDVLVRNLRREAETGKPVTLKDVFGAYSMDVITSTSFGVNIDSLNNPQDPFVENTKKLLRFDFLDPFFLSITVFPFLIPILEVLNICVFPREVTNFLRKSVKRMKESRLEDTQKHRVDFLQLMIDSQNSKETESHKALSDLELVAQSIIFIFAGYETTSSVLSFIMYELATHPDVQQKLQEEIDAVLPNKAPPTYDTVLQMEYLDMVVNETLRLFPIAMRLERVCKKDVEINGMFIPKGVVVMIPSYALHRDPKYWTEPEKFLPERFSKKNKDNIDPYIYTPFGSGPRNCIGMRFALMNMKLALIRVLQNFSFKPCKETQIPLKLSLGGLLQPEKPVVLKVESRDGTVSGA

Row | Compound | Inhibition type
6 | O=c1c(O)c(-c2ccc(O)c(O)c2)oc2cc(O)cc(O)c12 [quercetin, Quercetin] | mixed inhibitory mechanism; also recorded: mixed inhibition

Molecular target: human liver microsomes (HLM) (Homo sapiens, UniProt P08684)
Experiment: as above
Format: in vitro ADME
Settings: not given

Chain of human liver microsomes (HLM) (P08684 2-503): as above

Row | Compound | α
7 | O=c1c(O)c(-c2ccc(O)c(O)c2)oc2cc(O)cc(O)c12 [quercetin, Quercetin] | 0.21

Same assay, conditions: Lineweaver-Burk secondary plot

Row | Compound | αKi
8 | O=c1c(O)c(-c2ccc(O)c(O)c2)oc2cc(O)cc(O)c12 [quercetin, Quercetin] | 4.66 µM

Test system: rat liver microsomes (RLM)
Experiment: Inhibitor screening on ziprasidone metabolism in RLM
Format: in vitro ADME
Settings: 100 μM inhibitor, 0.3 mg/mL RLM, ziprasidone 10 μM, 20 min

Row | Compound | Relative activity (%)
9 | CCOC(=O)C1=C(COCCN)NC(C)=C(C(=O)OC)C1c1ccccc1Cl (stereo not drawn) [Amlodipine] | 24.44 ± 2.51%
10 | O=c1cc(-c2ccc(O)cc2)oc2cc(O)cc(O)c12 [Apigenin] | 31.41 ± 2.56%
11 | CC(C)(O)[C@H]1CC[C@@](C)([C@H]2[C@@H](O)C[C@@]3(C)[C@@H]4C[C@H](O[C@@H]5O[C@H](CO)[C@@H](O)[C@H](O)[C@H]5O)[C@H]5C(C)(C)[C@@H](O[C@@H]6OC[C@@H](O)[C@H](O)[C@H]6O)CC[C@@]56C[C@@]46CC[C@]23C)O1 [Astragaloside A] | 107.37 ± 18.93%
12 | CCOc1nc2cccc(C(=O)O)c2n1Cc1ccc(-c2ccccc2-c2nc(=O)o[nH]2)cc1 [Azilsartan] | 92.59 ± 5.86%
13 | O=c1cc(-c2ccccc2)oc2cc(O)c(O)c(O)c12 [Baicalein] | 97.20 ± 18.86%
14 | O=C(O)[C@H]1O[C@@H](Oc2cc3oc(-c4ccccc4)cc(=O)c3c(O)c2O)[C@H](O)[C@@H](O)[C@@H]1O [Baicalin] | 87.83 ± 13.63%
15 | CCCCN1CCCCC1C(=O)Nc1c(C)cccc1C (stereo not drawn) [Bupivacaine hydrochloride] | 104.14 ± 92.28%
16 | COc1ccc(-c2coc3cc(O)ccc3c2=O)cc1O [Calycosin] | 104.22 ± 12.51%
17 | CCOc1nc2cccc(C(=O)O)c2n1Cc1ccc(-c2ccccc2-c2nnn[nH]2)cc1 [Candesartan] | 54.29 ± 3.95%
18 | COc1ccccc1OCCNCC(O)COc1cccc2[nH]c3ccccc3c12 (stereo not drawn) [Carvedilol] | 29.89 ± 3.28%
19 | O=C(/C=C/c1ccc(O)c(O)c1)O[C@@H]1C[C@](O)(C(=O)O)C[C@@H](O)[C@H]1O [Chlorogenic acid] | 91.52 ± 17.97%
20 | O=c1cc(-c2ccccc2)oc2cc(O)cc(O)c12 [Chrysin] | 36.09 ± 19.09%
21 | O=C1CCc2cc(OCCCCc3nnnn3C3CCCCC3)ccc2N1 [Cilostazol] | 55.05 ± 0.99%
22 | Clc1cccc(Cl)c1N=C1NCCN1 [Clonidine hydrochloride] | 74.70 ± 0.47%
23 | COC(=O)[C@H](c1ccccc1Cl)N1CCc2sccc2C1 [Clopidogrel hydrogen sulfate] | 179.48 ± 15.80%
24 | C[C@@H]1C(=O)O[C@H](C)[C@H]1C[C@@H](O)[C@](C)(O)[C@H]1CC[C@@]2(O)C3=CC(=O)[C@@H]4C[C@@H](O)[C@@H](O)C[C@]4(C)[C@H]3CC[C@]12C [Cyasterone] | 83.75 ± 6.16%
25 | O=c1c(-c2ccc(O)cc2)coc2cc(O)ccc12 [Daidzein] | 121.70 ± 5.16%
26 | CCCCc1oc2ccc(NS(C)(=O)=O)cc2c1C(=O)c1ccc(OCCCN(CCCC)CCCC)cc1 [Dronedarone Hydrochloride] | 23.67 ± 11.05%
27 | Cc1cc(O)c2c(c1)C(=O)c1cc(O)cc(O)c1C2=O [Emodin] | 25.64 ± 3.15%
28 | CC(C)(O)CNc1nc(Nc2ccnc(C(F)(F)F)c2)nc(-c2cccc(C(F)(F)F)n2)n1 [Enasidenib] | 40.44 ± 1.29%
29 | CCOC(=O)C1=C(C)NC(C)=C(C(=O)OC)C1c1cccc(Cl)c1Cl (stereo not drawn) [Felodipine] | 28.36 ± 1.67%
30 | COc1cc2ncnc(Nc3ccc(F)c(Cl)c3)c2cc1OCCCN1CCOCC1 [Gefitinib] | 36.20 ± 0.61%
31 | CCCCC1=NC2(CCCC2)C(=O)N1Cc1ccc(-c2ccccc2-c2nnn[nH]2)cc1 [Irbesartan] | 72.41 ± 4.72%

Row | Compound | Relative activity (%)
32 | CCN(CC)CC(=O)Nc1c(C)cccc1C [Lidocaine] | 93.56 ± 10.94%
33 | CCCCc1nc(Cl)c(CO)n1Cc1ccc(-c2ccccc2-c2nn[nH]n2)cc1 [Losartan potassium] | 35.58 ± 50.31%
34 | CCCCc1nc(Cl)c(CO)n1Cc1ccc(-c2ccccc2-c2nn[nH]n2)cc1 [Losartan] | 74.09 ± 5.29%
35 | O=C1CCC[C@@H]2[C@H]3CCCN4CCC[C@@H](CN12)[C@@H]34 [Matrine] | 98.65 ± 1.77%
36 | O=c1c(O)c(-c2cc(O)c(O)c(O)c2)oc2cc(O)cc(O)c12 [Myricetin] | 2.64 ± 1.71%
37 | OC(CNCC(O)C1CCc2cc(F)ccc2O1)C1CCc2cc(F)ccc2O1 (stereo not drawn) [Nebivolol Hydrochloride] | 63.48 ± 3.34%
38 | COCCOC(=O)C1=C(C)NC(C)=C(C(=O)OC(C)C)C1c1cccc([N+](=O)[O-])c1 (stereo not drawn) [Nimodipine] | 49.68 ± 0.53%
39 | COc1ccc(C(C)=O)c(O)c1 [Paeonol] | 108.77 ± 3.51%
40 | CCN(CC)CCNC(=O)c1ccc(N)cc1 [Procainamide hydrochloride] | 113.37 ± 13.44%
41 | C=C[C@H]1C[N@@]2CC[C@H]1C[C@@H]2[C@@H](O)c1ccnc2ccc(OC)cc12 [Quinidine] | 83.40 ± 4.78%
42 | O=C(NC[C@H]1CN(c2ccc(N3CCOCC3=O)cc2)C(=O)O1)c1ccc(Cl)s1 [Rivaroxaban] | 102.37 ± 4.89%
43 | CCCN1CCCC[C@H]1C(=O)Nc1c(C)cccc1C [Ropivacaine hydrochloride] | 102.42 ± 0.84%
44 | C=C1C[C@@]23CC[C@H]4[C@@](C)(CCC[C@@]4(C)C(=O)O[C@@H]4O[C@H](CO)[C@@H](O)[C@H](O)[C@H]4O)[C@@H]2CC[C@]1(O[C@@H]1O[C@H](CO)[C@@H](O)[C@H](O)[C@H]1O)C3 [Rubusoside] | 103.75 ± 2.05%
45 | COc1cc2c(c(OC)c1OC)-c1c(cc(OC)c(OC)c1OC)C[C@H](C)[C@H](C)C2 [Schisandrin A] | 69.51 ± 11.79%
46 | COc1cc(C2Oc3cc([C@H]4Oc5cc(O)cc(O)c5C(=O)[C@@H]4O)ccc3OC2CO)ccc1O (stereo partly drawn) [Silibinin] | 45.13 ± 1.52%
47 | CCCc1nc2c(C)cc(-c3nc4ccccc4n3C)cc2n1Cc1ccc(-c2ccccc2C(=O)O)cc1 [Telmisartan] | 64.19 ± 12.39%
48 | CCCSc1nc(N[C@@H]2C[C@H]2c2ccc(F)c(F)c2)c2nnn([C@@H]3C[C@H](OCCO)[C@@H](O)[C@H]3O)c2n1 [Ticagrelor] | 36.84 ± 20.49%
49 | CC(C)[C@]12O[C@H]1[C@@H]1O[C@]13[C@]1(O[C@H]1C[C@H]1C4=C(CC[C@@]13C)C(=O)OC4)[C@@H]2O [Triptolide] | 87.47 ± 5.70%
50 | CCCCC(=O)N(Cc1ccc(-c2ccccc2-c2nnn[nH]2)cc1)[C@H](C(=O)O)C(C)C [Valsartan] | 44.50 ± 62.94%
51 | COc1cc(CCC(C)=O)ccc1O [Vanillylacetone] | 93.56 ± 3.00%
52 | COc1c(O)cc(O)c2c(=O)cc(-c3ccccc3)oc12 [Wogonin] | 80.85 ± 12.40%
53 | COc1c(O[C@@H]2O[C@H](C(=O)O)[C@@H](O)[C@H](O)[C@H]2O)cc(O)c2c(=O)cc(-c3ccccc3)oc12 [Wogonoside] | 92.55 ± 1.09%
54 | Cucurbitacin B | 117.16 ± 18.74%

Same assay, conditions: 100 μM inhibitor, RLM

Row | Compound | suppression of the metabolism of ziprasidone
55 | O=c1c(O)c(-c2ccc(O)c(O)c2)oc2cc(O)cc(O)c12 [quercetin, Quercetin] | over 80%
56 | Oc1ccc(/C=C/c2cc(O)cc(O)c2)cc1 [resveratrol, Resveratrol] | over 80%

Test system: not given
Experiment: not given
Set-up: method as in Ye et al., 2024
Settings: nimodipine coadministration; ref Ye et al., 2024; cited from earlier work

Row | Compound | elevation of AUC | elevation of Cmax
57 | CCN1CCN(c2cc(-c3ccc(F)cc3)c3c(n2)CCCCCC3)CC1 [blonanserin] | more than 2 fold | more than 2 fold
